Test results: patent US20260250318A1, “COMPOSITIONS AND METHODS FOR CROSSING THE BLOOD BRAIN BARRIER” (VOYAGER THERAPEUTICS, INC., priority 2022, published 2026)

Tests used:
Conditions in all cases: synthetic library passage 3, intravenous, relative to wild-type AAV9
brain [1] = test: NGS fold enrichment of synthetic library (passage 3) in BALB/c mice, first cross-species screen; assay type: in vivo
Procedure, shortened: (§1)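 Passage-3 synthetic capsid library given intravenously […] to NHPs (2-4 years) and BALB/c or C57Bl/6 mice (n=3, 6-8 weeks). After e.g. 28 days, tissue RNA was RT-PCR amplified and NGS-sequenced; values are fold enrichment of each variant relative to wild-type AAV9.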

brain [2] = test: NGS fold enrichment of synthetic library (passage 3) in C57Bl/6 mice, first cross-species screen; assay type: in vivo
Procedure, shortened: as §1

[3] = test system: brain, spinal cord, and DRG of the NHPs; test: NGS fold enrichment of synthetic library (passage 3) in NHPs, first cross-species screen; assay type: in vivo, cynomolgus macaques (Macaca fascicularis)
Procedure, shortened: as §1

[4] = RNA from brain of BALB/c mice, NGS
[5] = RNA from brain of C57Bl/6 mice, NGS
[6] = RNA from spinal cord of NHPs, NGS

Row | Sequence | Fold enrichment over AAV9 in the brain of Mice (BALB/c) (brain [1]; RNA NGS, brain of BALB/c mice) | Fold enrichment over AAV9 in the brain of Mice (C57Bl/6) (brain [2]; RNA NGS, brain of C57Bl/6 mice) | Fold enrichment over AAV9 in the brain of NHPs ([3]; RNA NGS, brain of NHPs) | Fold enrichment over AAV9 in the spinal cord of NHPs ([3]; RNA NGS, spinal cord of NHPs) | Fold enrichment over AAV9 in the brain of Mice (BALB/c) (brain [1]; [4]) | Fold enrichment over AAV9 in the brain of Mice (C57Bl/6) (brain [2]; [5]) | Fold enrichment over AAV9 in the brain of NHPs ([3]; RNA from brain of NHPs, NGS) | Fold enrichment over AAV9 in the spinal cord of NHPs [3, 6]
1 | GSGQNQAGHGPGQT | 0.887 fold | 1.040 fold | 1.670 fold | 2.861 fold |  |  |  | 
2 | GSGQNQALVSMGQT |  |  |  |  | 0.560 fold | 0.987 fold | 1.255 fold | 1.876 fold
3 | GSGQNQAMTHGDQT |  |  |  |  | 0.259 fold | 0.357 fold | 1.257 fold | 1.878 fold
4 | GSGQNQANWVKVQT | 0.532 fold | 0.683 fold | 1.059 fold | 0.126 fold |  |  |  | 
5 | GSGQNQAVHNKSQT | 1.083 fold | 1.465 fold | 1.956 fold | 3.791 fold |  |  |  | 
6 | GSGQNQDHQNKQQT |  |  |  |  | 0.761 fold | 0.510 fold | 1.308 fold | 1.470 fold
7 | GSGQNQGLLSSPQT |  |  |  |  | 0.417 fold | 0.707 fold | 1.164 fold | 0.000 fold
8 | GSGQNQGRAHPMQT | 0.453 fold | 0.684 fold | 1.007 fold | 2.364 fold |  |  |  | 
9 | GSGQNQGTVYPNQT |  |  |  |  | 0.815 fold | 0.835 fold | 1.358 fold | 7.648 fold
10 | GSGQNQHHSVSQQT | 0.334 fold | 0.605 fold | 1.623 fold | 3.700 fold |  |  |  | 
11 | GSGQNQHLSSFVQT | 0.364 fold | 1.090 fold | 1.013 fold | 0.110 fold |  |  |  | 
12 | GSGQNQHSAPFNQT | 0.870 fold | 0.759 fold | 1.969 fold | 0.499 fold |  |  |  | 
13 | GSGQNQHSAPNSQT | 0.731 fold | 1.187 fold | 2.134 fold | 4.143 fold |  |  |  | 
14 | GSGQNQHSLGNYQT | 0.606 fold | 1.077 fold | 2.143 fold | 1.896 fold |  |  |  | 
15 | GSGQNQHSLPAHRT |  |  |  |  | 0.742 fold | 0.911 fold | 1.361 fold | 0.700 fold
16 | GSGQNQHSVHNDQT | 0.515 fold | 0.521 fold | 1.428 fold | 0.000 fold |  |  |  | 
17 | GSGQNQHSVQVRQT | 0.916 fold | 0.782 fold | 1.116 fold | 1.909 fold |  |  |  | 
